From patent publication US12427187B2, “Glucose-responsive insulin conjugates” (priority 2019, dated 2025)

Each compound was assayed against T1, Human macrophage mannose receptor 1 (MRC1) (Homo sapiens, UniProt P22897) (assay: MRC1 competition binding assay with Eu-mannosylated-BSA). Settings: Method E: 96-well plate; IP = inflection point; read-out: MRC1 Binding IP.
T1 sequence (P22897 19-1456): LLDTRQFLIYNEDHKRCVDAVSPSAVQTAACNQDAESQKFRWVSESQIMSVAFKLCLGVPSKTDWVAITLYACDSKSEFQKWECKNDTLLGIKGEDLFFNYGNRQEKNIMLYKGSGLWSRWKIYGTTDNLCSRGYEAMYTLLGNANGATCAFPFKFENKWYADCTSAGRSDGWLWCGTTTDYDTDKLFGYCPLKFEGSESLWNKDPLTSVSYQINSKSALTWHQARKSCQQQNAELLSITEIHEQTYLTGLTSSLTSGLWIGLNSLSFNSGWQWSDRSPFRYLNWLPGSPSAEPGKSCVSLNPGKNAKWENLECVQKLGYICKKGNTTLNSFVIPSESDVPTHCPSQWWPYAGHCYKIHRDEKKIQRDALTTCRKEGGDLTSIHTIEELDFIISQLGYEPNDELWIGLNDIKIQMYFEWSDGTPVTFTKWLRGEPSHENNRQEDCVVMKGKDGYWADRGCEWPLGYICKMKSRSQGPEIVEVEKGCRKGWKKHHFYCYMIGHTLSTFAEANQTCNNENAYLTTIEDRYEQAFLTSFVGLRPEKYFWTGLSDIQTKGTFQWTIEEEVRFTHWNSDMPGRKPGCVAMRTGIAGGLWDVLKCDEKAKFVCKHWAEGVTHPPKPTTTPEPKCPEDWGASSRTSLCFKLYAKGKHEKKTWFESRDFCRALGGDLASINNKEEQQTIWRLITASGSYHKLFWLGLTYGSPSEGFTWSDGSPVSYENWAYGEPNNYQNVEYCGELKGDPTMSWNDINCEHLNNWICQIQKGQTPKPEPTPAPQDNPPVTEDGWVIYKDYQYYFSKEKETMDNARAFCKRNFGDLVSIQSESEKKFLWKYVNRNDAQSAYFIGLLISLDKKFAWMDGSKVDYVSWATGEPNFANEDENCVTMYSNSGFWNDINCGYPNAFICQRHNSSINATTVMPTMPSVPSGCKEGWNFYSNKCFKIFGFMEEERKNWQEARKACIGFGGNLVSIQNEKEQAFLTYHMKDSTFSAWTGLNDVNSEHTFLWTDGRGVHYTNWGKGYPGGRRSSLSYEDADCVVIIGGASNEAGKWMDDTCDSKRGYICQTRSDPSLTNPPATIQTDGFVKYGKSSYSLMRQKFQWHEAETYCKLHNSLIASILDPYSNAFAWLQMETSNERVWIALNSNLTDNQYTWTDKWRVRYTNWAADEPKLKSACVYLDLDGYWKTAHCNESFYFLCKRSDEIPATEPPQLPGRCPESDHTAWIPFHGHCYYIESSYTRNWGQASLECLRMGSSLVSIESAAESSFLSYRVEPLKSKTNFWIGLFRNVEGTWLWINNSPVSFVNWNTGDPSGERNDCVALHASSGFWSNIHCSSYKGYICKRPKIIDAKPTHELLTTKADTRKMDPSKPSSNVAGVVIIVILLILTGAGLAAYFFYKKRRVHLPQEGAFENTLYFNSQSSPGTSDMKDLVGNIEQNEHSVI
Experimental: The competition binding assay for Human macrophage mannose receptor 1 (MRC1) utilized a ligand, mannosylated-BSA labeled with the DELFIA Eu-N1-ITC reagent, as reported in the literature. Assay was performed either in a 96-well plate with 100 μL well volume (Method E) or in a 384-well plate with 25 μL well volume (Method F). […] The antibody was incubated in the plate for 1 hr at rt with shaking. The plate was washed with wash buffer 3-5 times followed by addition of MRC1 (2 ng/μl final concentration) in PBS containing 1% stabilizer BSA. The plate was incubated at rt with gentle shaking for 1 hr. The plate was washed three times with wash buffer. The IOC molecules in 12.5 μL (or 50 μL depending on plate format) buffer at appropriate concentrations were added followed by 12.5 μL (or 50 μL) Eu-mannosylated-BSA (0.1 nm final concentration) in 50 mM Tris, pH 7.5 containing 100 mM NaCl, 5 mM CaCl2, 1 mM MgCl2 and 0.2% stabilizer BSA. The plate was incubated for 2 hrs at rt with shaking followed by washing three times with wash buffer.
For `CC(=O)[C@H](CCCCN)NC(=O)CCCCC(=O)N[C@@H](CCC(=O)NCCO[C@H]1O[C@H](CO)[C@@H](O)[C@H](O)[C@@H]1O)C(=O)N[C@@H](CCC(=O)NCCO[C@H]1O[C@H](CO)[C@@H](O)[C@H](O)[C@@H]1O)C(=O)N[C@@H](CCC(=O)NCCO[C@H]1O[C@H](CO)[C@@H](O)[C@H](O)[C@@H]1O)C(=O)NCCO[C@H]1O[C@H](CO)[C@@H](O)[C@H](O)[C@@H]1O` [IOC-16], the IC50 was 86.7 nM.
Work on `CC(=O)[C@H](CCCCN)NC(=O)CCCCC(=O)N[C@@H](CCC(=O)NCCCCCC(=O)N(CCOC1O[C@H](CO)[C@@H](O)[C@H](O)[C@@H]1O)CCOC1O[C@H](CO)[C@@H](O)[C@H](O)[C@@H]1O)C(=O)N[C@@H](CCC(=O)NCCCCCC(=O)N(CCOC1O[C@H](CO)[C@@H](O)[C@H](O)[C@@H]1O)CCO[C@H]1O[C@H](CO)[C@@H](O)[C@H](O)[C@@H]1O)C(=O)N[C@@H](CC(C)C)C(=O)NCCCCCC(=O)N(CCOC1O[C@H](CO)[C@@H](O)[C@H](O)[C@@H]1O)CCOC1O[C@H](CO)[C@@H](O)[C@H](O)[C@@H]1O` (some centres unmarked) [IOC-49] yielded an IC50 of 54.5 nM.

Same assay, conditions: Method F: 384-well plate; IP = inflection point; read-out: MRC1 Binding IP
With `CC(=O)[C@H](CCCCN)NC(=O)CCCCCNC(=O)[C@H](CCCCNC(=O)CCCCCNC(=O)CCCCCNC(=O)CN(CC(=O)NCCO[C@H]1O[C@H](CO)[C@@H](O)[C@H](O)[C@@H]1O)CC(=O)NCCO[C@H]1O[C@H](CO)[C@@H](O)[C@H](O)[C@@H]1O)NC(=O)[C@H](CCCCNC(=O)CCCCCNC(=O)CN(CC(=O)NCCO[C@H]1O[C@H](CO)[C@@H](O)[C@H](O)[C@@H]1O)CC(=O)NCCO[C@H]1O[C@H](CO)[C@@H](O)[C@H](O)[C@@H]1O)NC(=O)CCCCCNC(=O)CN(CC(=O)NCCO[C@H]1O[C@H](CO)[C@@H](O)[C@H](O)[C@@H]1O)CC(=O)NCCO[C@H]1O[C@H](CO)[C@@H](O)[C@H](O)[C@@H]1O` [IOC-52] the IC50 was 49.1 nM.
For `CC(=O)[C@H](CCCCN)NC(=O)CCCCC(=O)NCC(=O)N[C@@H](CCC(=O)N[C@@H](CCC(=O)NCCCCCC(=O)N(CCOC1O[C@H](CO)[C@@H](O)[C@H](O)[C@@H]1O)CCO[C@H]1O[C@H](CO)[C@@H](O)[C@H](O)[C@@H]1O)C(=O)NCCCCCC(=O)N(CCOC1O[C@H](CO)[C@@H](O)[C@H](O)[C@@H]1O)CCOC1O[C@H](CO)[C@@H](O)[C@H](O)[C@@H]1O)C(=O)NCCCCCC(=O)NCCO[C@H]1O[C@H](CO[C@H]2O[C@H](CO)[C@@H](O)[C@H](O)[C@@H]2O)[C@@H](O)[C@H](O[C@H]2O[C@H](CO)[C@@H](O)[C@H](O)[C@@H]2O)[C@@H]1O` (some centres unmarked) [IOC-32], the IC50 was 604 nM.
`CC(=O)[C@H](CCCCN)NC(=O)CCCCC(=O)NCC(=O)N[C@@H](CCC(=O)N[C@@H](CCC(=O)NCCCCCC(=O)N(CCOC1O[C@H](CO)[C@@H](O)[C@H](O)[C@@H]1O)CCO[C@H]1O[C@H](CO)[C@@H](O)[C@H](O)[C@@H]1O)C(=O)NCCCCCC(=O)N(CCOC1O[C@H](CO)[C@@H](O)[C@H](O)[C@@H]1O)CCOC1O[C@H](CO)[C@@H](O)[C@H](O)[C@@H]1O)C(=O)NCCCCCC(=O)NCCO[C@H]1O[C@H](CO[C@H]2O[C@H](CO)[C@@H](O)[C@H](O)[C@@H]2O)[C@@H](O)[C@H](O[C@H]2O[C@H](CO)[C@@H](O)[C@H](O)[C@@H]2O)[C@@H]1O` (some centres unmarked) [IOC-34] showed an IC50 of 7.93 nM.
`CC(=O)[C@H](CCCCN)NC(=O)CCCCC(=O)N[C@@H](CCC(=O)N[C@@H](CCC(=O)N[C@@H](CCC(=O)N[C@@H](CCC(=O)N[C@@H](CCC(=O)NCCO[C@@H]1O[C@@H](C)[C@@H](O)[C@@H](O)[C@@H]1O)C(=O)NCCO[C@@H]1O[C@@H](C)[C@@H](O)[C@@H](O)[C@@H]1O)C(=O)NCCO[C@@H]1O[C@@H](C)[C@@H](O)[C@@H](O)[C@@H]1O)C(=O)NCCO[C@@H]1O[C@@H](C)[C@@H](O)[C@@H](O)[C@@H]1O)C(=O)NCCO[C@@H]1O[C@@H](C)[C@@H](O)[C@@H](O)[C@@H]1O)C(=O)NCCO[C@@H]1O[C@@H](C)[C@@H](O)[C@@H](O)[C@@H]1O` [IOC-54] showed an IC50 of 8.91 nM.
With `CC(=O)[C@H](CCCCN)NC(=O)CCCCC(=O)NCC(=O)N[C@@H](CCC(=O)N[C@@H](CCC(=O)NCCCCCC(=O)N(CCOC1O[C@H](CO)[C@@H](O)[C@H](O)[C@@H]1O)CCO[C@H]1O[C@H](CO)[C@@H](O)[C@H](O)[C@@H]1O)C(=O)NCCCCCC(=O)N(CCOC1O[C@H](CO)[C@@H](O)[C@H](O)[C@@H]1O)CCOC1O[C@H](CO)[C@@H](O)[C@H](O)[C@@H]1O)C(=O)NCCCCCC(=O)NCCO[C@H]1O[C@H](CO[C@H]2O[C@H](CO)[C@@H](O)[C@H](O)[C@@H]2O)[C@@H](O)[C@H](O[C@H]2O[C@H](CO)[C@@H](O)[C@H](O)[C@@H]2O)[C@@H]1O` (some centres unmarked) [IOC-30] the IC50 was 37 nM.
`CC(=O)[C@H](CCCCN)NC(=O)CCCCCNC(=O)[C@H](CCCCNC(=O)[C@H](CCCCNC(=O)CCCCCNC(=O)CN(CC(=O)NCCO[C@@H]1O[C@@H](C)[C@@H](O)[C@@H](O)[C@@H]1O)CC(=O)NCCO[C@@H]1O[C@@H](C)[C@@H](O)[C@@H](O)[C@@H]1O)NC(=O)CN(CC(=O)NCCO[C@@H]1O[C@@H](C)[C@@H](O)[C@@H](O)[C@@H]1O)CC(=O)NCCO[C@@H]1O[C@@H](C)[C@@H](O)[C@@H](O)[C@@H]1O)NC(=O)CN(CC(=O)NCCO[C@@H]1O[C@@H](C)[C@@H](O)[C@@H](O)[C@@H]1O)CC(=O)NCCO[C@@H]1O[C@@H](C)[C@@H](O)[C@@H](O)[C@@H]1O` [IOC-45] gave an IC50 of 8.91 nM.
Compound `CC(=O)[C@H](CCCCN)NC(=O)CCCCC(=O)NCC(=O)N[C@@H](CCC(=O)N[C@@H](CCC(=O)NCCCCCC(=O)N(CCOC1O[C@H](CO)[C@@H](O)[C@H](O)[C@@H]1O)CCO[C@H]1O[C@H](CO)[C@@H](O)[C@H](O)[C@@H]1O)C(=O)NCCCCCC(=O)N(CCOC1O[C@H](CO)[C@@H](O)[C@H](O)[C@@H]1O)CCOC1O[C@H](CO)[C@@H](O)[C@H](O)[C@@H]1O)C(=O)NCCCCCC(=O)NCCO[C@H]1O[C@H](CO[C@H]2O[C@H](CO)[C@@H](O)[C@H](O)[C@@H]2O)[C@@H](O)[C@H](O[C@H]2O[C@H](CO)[C@@H](O)[C@H](O)[C@@H]2O)[C@@H]1O` (some centres unmarked) [IOC-29] has an IC50 of 18.5 nM.
`CC(=O)[C@H](CCCCN)NC(=O)CCCCC(=O)NCC(=O)N[C@@H](CCC(=O)N[C@@H](CCC(=O)NCCCCCC(=O)N(CCOC1O[C@H](CO)[C@@H](O)[C@H](O)[C@@H]1O)CCOC1O[C@H](CO)[C@@H](O)[C@H](O)[C@@H]1O)C(=O)NCCCCCC(=O)N(CCOC1O[C@H](CO)[C@@H](O)[C@H](O)[C@@H]1O)CCOC1O[C@H](CO)[C@@H](O)[C@H](O)[C@@H]1O)C(=O)NCCCCCC(=O)NCCO[C@@H]1O[C@H](CO[C@H]2O[C@H](CO)[C@@H](O)[C@H](O)[C@@H]2O)[C@@H](O)[C@H](O[C@H]2O[C@H](CO)[C@@H](O)[C@H](O)[C@@H]2O)[C@@H]1O` (some centres unmarked) [IOC-28] showed an IC50 of 10.9 nM.
With `CC(=O)[C@H](CCCCN)NC(=O)CCCCCNC(=O)[C@H](CCCCNC(=O)CCOCCOCCNC(=O)CN(CC(=O)NCCO[C@@H]1O[C@@H](C)[C@@H](O)[C@@H](O)[C@@H]1O)CC(=O)NCCO[C@@H]1O[C@@H](C)[C@@H](O)[C@@H](O)[C@@H]1O)NC(=O)[C@H](CCCCNC(=O)CCOCCOCCNC(=O)CN(CC(=O)NCCO[C@@H]1O[C@@H](C)[C@@H](O)[C@@H](O)[C@@H]1O)CC(=O)NCCO[C@@H]1O[C@@H](C)[C@@H](O)[C@@H](O)[C@@H]1O)NC(=O)CCOCCOCCNC(=O)CN(CC(=O)NCCO[C@@H]1O[C@@H](C)[C@@H](O)[C@@H](O)[C@@H]1O)CC(=O)NCCO[C@@H]1O[C@@H](C)[C@@H](O)[C@@H](O)[C@@H]1O` [IOC-43] the IC50 was 8.25 nM.
